Test results taken from patent US12281098B2, “Five-membered-fused six-membered compound, preparation method, pharmaceutical composition and use” (HANGZHOU POLYMED BIOPHARMACEUTICALS, INC., priority 2021, dated 2025).
Like-named read-outs stand apart in the source and are kept apart here.

What was measured:
[1] = target: T1, IRAK4 protein in THP-1 cells (Homo sapiens, UniProt Q9NWZ3); experiment: IRAK4 protein degradation in THP-1 induced by PROTAC (Western Blot); type: cell-based; details: GAPDH internal reference
T1 construct: endogenous in cells; host or cells: THP-1
T1 sequence (Q9NWZ3 1-460): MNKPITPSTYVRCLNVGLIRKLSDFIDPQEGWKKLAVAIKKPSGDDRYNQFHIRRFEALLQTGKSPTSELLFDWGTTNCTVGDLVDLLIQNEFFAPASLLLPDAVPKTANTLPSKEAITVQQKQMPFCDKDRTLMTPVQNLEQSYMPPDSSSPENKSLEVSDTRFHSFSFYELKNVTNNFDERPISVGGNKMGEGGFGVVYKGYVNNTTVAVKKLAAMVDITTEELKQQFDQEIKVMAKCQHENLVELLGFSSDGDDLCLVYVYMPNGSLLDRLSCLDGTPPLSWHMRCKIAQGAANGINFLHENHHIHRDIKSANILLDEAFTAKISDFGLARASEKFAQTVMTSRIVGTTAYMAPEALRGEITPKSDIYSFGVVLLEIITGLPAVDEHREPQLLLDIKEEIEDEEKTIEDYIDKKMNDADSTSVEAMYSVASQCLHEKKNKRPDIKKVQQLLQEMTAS
Protocol: 3.1. Based on the experimental method of immunoblot, i.e., Western Blot, THP-1 cell samples processed by gel electrophoresis were stained with specific antibodies, and the degradation activity of the compounds on the IRAK4 protein in THP-1 cells was determined by analyzing the position of the staining and the depth of the staining. The detection concentrations of the compounds were 0 μM, 0.3 μM, 1 μM, and 3 μM, and the compounds were used to treat the cells for 8 hours, 16 hours, 24 hours, and 48 hours. In this case, glyceraldehyde-3-phosphate dehydrogenase (GAPDH) was the internal reference protein for the assay.
THP-1 cells were spread into a 6-well plate at a density of 1.5×10^6 cells per mL, and incubated in a 37° C. cell culture incubator with 5% CO2 for 2 hours. The compound was diluted with DMSO to 0.6 mM, 0.2 mM, and 0.06 mM, respectively. 10 μL of compound solution was added to the corresponding wells, and the plate was incubated in the incubator for 16 hours, 24 hours, and 48 hours, respectively. The drug-treated THP-1 cells were collected from the wells, added with 120 μL of RIPA lysis buffer containing protease inhibitor, phosphatase inhibitor cocktail 2, and phosphatase inhibitor cocktail 3, and lysed on wet ice for 30 minutes. The cell lysate was then centrifuged at low temperature and high speed for 5 minutes, and the supernatant was collected. Referring to the instructions in the Pierce™ BCA Protein Assay Kit, the cell samples were tested for protein concentration.
The samples were adjusted to the same concentration using lysis buffer and NuPAGE® LDS sample buffer containing 1 M DTT. The samples were heated at 95° C. for 5 minutes and centrifuged at low temperature and high speed. 20 μL of prepared protein sample and 4 μL of PageRuler Prestained Protein Ladder were added to the gel wells. The mixture was electrophoresed at a voltage of 80 V for 0.5 hours, and then electrophoresed for another 1.5 hours after the voltage was adjusted to 120 V. The gel was removed and proteins in the gel were transferred to IBlot™ 2 Transfer Stack at a voltage of 20V. After successful membrane transfer, the bands were cut out at 65 kDa to 40 kDa and 40 kDa to 30 kDa, respectively. The membrane was blocked with 5% non-fat milk at room temperature for 1 hour. The membrane was washed three times with 1×TBST, and incubated with IRAK4 antibody working solution at 4° C. overnight. The IRAK4 antibody working solution was discarded, and the membrane was washed three times with 1×TBST. After the corresponding membrane was incubated with Goat Anti-Rabbit IgG H&L (HRP) working solution and Goat Anti-Mouse IgG H&L (HRP) working solution at room temperature for 1 hour, the antibody working solutions were discarded, and the membrane was washed three times with 1×TBST. Referring to the instructions in the SuperSignal™ West Femto Maximum Sensitivity Substrate Kit, the reagents in the kit were mixed in equal volume proportions to prepare a luminescent mixture, and the membrane was incubated for 1 minute and removed for exposure.
WB assay: The results 24 hours after administration at 1 μM were divided into estimated <25%, <50%, <75%, and <100%.

IRAK4 kinase = target: T2, IRAK4 kinase (Homo sapiens, UniProt Q9NWZ3); experiment: Compound inhibition of IRAK4 kinase activity (fluorescence microfluidic mobility shift assay); type: biochemical; details: 10 μM ATP, 6 nM IRAK4 kinase
T2 construct: purchased Carna 09-145
T2 sequence (Q9NWZ3 1-460): T1 sequence (Q9NWZ3 1-460)
Protocol: Based on the experimental method of fluorescence microfluidic mobility shift assay, the IC50 value of the compound for competitive binding of ATP to IRAK4 kinase was determined. The initial detection concentration of the compound was 10 μM, which was 4-fold serially diluted to 0.38 nM and assayed in duplicate. In this case, commercially available staurosporine was the standard control for the assay.
1) IRAK4 kinase was dissolved in kinase buffer (50 mM HEPES pH 7.5, 10 mM MgCl2, 2 mM DDT, and 0.01% Brij-35) at a final concentration of 6 nM.
2) The substrate peptide FAM-P8 and ATP were dissolved in the above kinase buffer, and the final concentrations of the substrate peptide FAM-P8 and ATP for IRAK4 were 3 μM and 10 μM, respectively.
3) Compound dilution: The compound was first diluted to 50 μM, and then 4-fold serially diluted with DMSO. In this case, the solution without compound and kinase served as the blank control, corresponding to the “minimum value” shown below; the solution without compound but containing kinase, adenosine 5′-triphosphate disodium salt hydrate, DMSO, and the buffer served as the positive control, corresponding to the “maximum value” shown below.
4) Kinase reaction and termination: 10 μL of the kinase buffer was added to a 384-well plate containing 5 μL of the compound to be tested, and the mixture was incubated at room temperature for 10 minutes; another 10 μL of buffer containing the substrate peptide and adenosine 5′-triphosphate disodium salt hydrate was added to the 384-well plate, and after incubation at 28° C. for 1 hour, 25 μL of termination solution (100 mM HEPES pH 7.5, 50 mM EDTA, 0.2% Coating Reagent #3, and 0.015% Brij-35) was added to each well to terminate the reaction.
5) Data reading: CaliperEZ Reader II instrument was used to read the conversion rate data. Setting conditions: downstream voltage as −500 V, upstream voltage as −2250 V, base pressure as −0.5 PSI, and screening pressure as −1.2 PSI.
6) Data calculation: the conversion rate data was copied from CaliperEZ Reader II, and the conversion rate was converted into inhibition rate data. The calculation formula is as follows: Inhibition percentage (%)=(maximum value−conversion rate)/(maximum value−minimum value)*100%
IC50 values were fitted with XLFit excel add-in version 5.4.0.8.

THP-1 cells = experiment: LPS-stimulated cytokine (TNFα) release in THP-1; type: cell-based, Human; details: LPS 100 ng/mL, 5 hours, TNF-α ELISA, read-out: Inhibition IC50 (nM) of cytokines (TNFα) against LPS-stimulated inflammatory responses in THP-1 cells
Protocol: THP-1 cells were cultured in suspension in RPMI 1640 complete medium (containing 10% serum, 1% penicillin-streptomycin, and 55 μM β-mercaptoethanol). THP-1 cells were collected, centrifuged at 350×g at room temperature to discard the supernatant, and resuspended in RPMI 1640 complete medium to a concentration of 2×10^6 cells per mL. THP-1 cells were spread into a 96-well plate at a concentration of 2×10^5 cells per well, and different concentrations of the compound to be tested were added thereto. The plate was incubated in a 37° C. cell culture incubator with 5% CO2 for 60 minutes. 50 μL of LPS at a final concentration of 100 ng/mL was added to a 96-well plate, and incubated in a 37° C. cell culture incubator for 5 hours. The cell culture plate was then taken out from the incubator, and centrifuged at 350×g at low temperature for 5 minutes to collect 150 μL of the supernatant. Referring to the instructions in the Human TNF-α Duoset ELISA Kit, the level of TNF-α in the cell culture supernatant was detected.
Data on the inhibitory activity of cytokines (TNFα) against LPS-stimulated inflammatory responses in THP-1 cells are shown in Tables 3 and 4.

Row | SMILES | Western Blot results 24 hours after administration at a drug concentration of 1 μM ([1]; Table 5, estimated bins) [%] | IC50 (IRAK4 kinase; Table 1) [µM] | IC50 (IRAK4 kinase; Table 2) [µM] | IC50 (THP-1 cells; Homo sapiens, THP-1, Table 3) [nM] | IC50 (THP-1 cells; Table 4) [nM] | Western Blot results 24 hours after administration at a drug concentration of 1 μM ([1]; Table 6, estimated bins) [%] | IC50 (THP-1 cells; Homo sapiens, THP-1, Table 4) [nM]
1 | Cc1ncsc1-c1ccc([C@H](C)NC(=O)[C@@H]2C[C@@H](O)CN2C(=O)[C@@H](NC(=O)C2CC3(CCN(C(=O)CN4CCN(CCn5cc6cc(NC(=O)c7cccc(C(F)(F)F)n7)c(C(C)(C)O)cc6n5)C4=O)CC3)C2)C(C)(C)C)cc1 [III-16] | <50 | 0.1 to 1 | 0.1 to 1 | 1000 to 10000 | 1000 to 10000 | – | –
2 | Cc1ncsc1-c1ccc([C@H](C)NC(=O)[C@@H]2C[C@@H](O)CN2C(=O)[C@@H](NC(=O)C2CCC3(CC2)CCN(C(=O)CN2CCN(CCn4cc5cc(NC(=O)c6cccc(C(F)(F)F)n6)c(C(C)(C)O)cc5n4)C2=O)CC3)C(C)(C)C)cc1 [III-17] | <25 | 0.1 to 1 | 0.1 to 1 | 1000 to 10000 | 1000 to 10000 | <25 | –
3 | CC(C)(O)c1cc2nn(CCN3CCN(CC(=O)N4CCC5(CC4)CN(c4cccc6c4C(=O)N(C4CCC(=O)NC4=O)C6=O)C5)C3=O)cc2cc1NC(=O)c1cccc(C(F)(F)F)n1 (stereo not drawn) [III-5] | – | 0.1 to 1 | 0.1 to 1 | – | – | <25 | 1000 to 10000
